Reference: ChEMBL document CHEMBL4049403, “Oligo-aspartic acid conjugates with benzo[c][2,6]naphthyridine-8-carboxylic acid scaffold as picomolar inhibitors of CK2” (Bioorg Med Chem, 2017)
Where a SMILES comes first, the peptide text is derived from it. The star is where a group is joined. X1 = O=C(O)c1ccc2c(c1)nc(OCCCCCCCCC(=O)*)c1ccncc12

Experiments:
[1] = biological target: Ribosomal protein S6 kinase alpha-1 (Homo sapiens) (UniProt Q15418); experiment: Inhibition of human RSK1 assessed as residual activity at 1 uM in presence of 33P-ATP by filter-binding assay relative to control
[2] = biological target: Mitogen-activated protein kinase 10 (Homo sapiens) (UniProt P53779); experiment: Inhibition of human JNK3 assessed as residual activity at 1 uM in presence of [33P]ATP by filter binding assay relative to control
[3] = biological target: Serine/threonine-protein kinase MARK1 (Homo sapiens) (UniProt Q9P0L2); experiment: Inhibition of human MARK1 assessed as residual activity at 1 uM in presence of [33P]ATP by filter binding assay relative to control
[4] = biological target: Inhibitor of nuclear factor kappa-B kinase subunit beta (Homo sapiens) (UniProt O14920); experiment: Inhibition of human IKKb assessed as residual activity at 1 uM in presence of [33P]ATP by filter binding assay relative to control
[5] = biological target: Platelet-derived growth factor receptor alpha (Homo sapiens) (UniProt P16234); experiment: Inhibition of human PDGFRA assessed as residual activity at 1 uM in presence of [33P]ATP by filter binding assay relative to control
[6] = biological target: Ribosomal protein S6 kinase alpha-3 (Homo sapiens) (UniProt P51812); experiment: Inhibition of human RSK2 assessed as residual activity at 1 uM in presence of 33P-ATP by filter-binding assay relative to control
[7] = biological target: Serine/threonine-protein kinase PAK 6 (Homo sapiens) (UniProt Q9NQU5); experiment: Inhibition of human PAK6 assessed as residual activity at 1 uM in presence of [33P]ATP by filter binding assay relative to control
Homo sapiens = species on record: Homo sapiens; experiment: Inhibition of human CK2 assessed as residual activity at 1 uM in presence of 33P-ATP by filter-binding assay relative to control
[8] = biological target: Serine/threonine-protein kinase ULK2 (Homo sapiens) (UniProt Q8IYT8); experiment: Inhibition of human ULK2 assessed as residual activity at 1 uM in presence of [33P]ATP by filter binding assay relative to control
[9] = biological target: Dual specificity tyrosine-phosphorylation-regulated kinase 3 (Homo sapiens) (UniProt O43781); experiment: Inhibition of human DYRK3 assessed as residual activity at 1 uM in presence of 33P-ATP by filter-binding assay relative to control
[10] = biological target: Dual specificity protein kinase TTK (Homo sapiens) (UniProt P33981); experiment: Inhibition of human TTK assessed as residual activity at 1 uM in presence of 33P-ATP by filter-binding assay relative to control
[11] = biological target: Dual specificity tyrosine-phosphorylation-regulated kinase 1A (Homo sapiens) (UniProt Q13627); experiment: Inhibition of human DYRK1A assessed as residual activity at 1 uM in presence of 33P-ATP by filter-binding assay relative to control
[12] = biological target: 3-phosphoinositide-dependent protein kinase 1 (Homo sapiens) (UniProt O15530); experiment: Inhibition of human PDK1 assessed as residual activity at 1 uM in presence of [33P]ATP by filter binding assay relative to control
[13] = biological target: Serine/threonine-protein kinase Nek6 (Homo sapiens) (UniProt Q9HC98); experiment: Inhibition of human NEK6 assessed as residual activity at 1 uM in presence of [33P]ATP by filter binding assay relative to control
[14] = biological target: Receptor-interacting serine/threonine-protein kinase 2 (Homo sapiens) (UniProt O43353); experiment: Inhibition of human RIPK2 assessed as residual activity at 1 uM in presence of 33P-ATP by filter-binding assay relative to control
[15] = biological target: Serine/threonine-protein kinase MARK2 (Homo sapiens) (UniProt Q7KZI7); experiment: Inhibition of human MARK2 assessed as residual activity at 1 uM in presence of [33P]ATP by filter binding assay relative to control
[16] = biological target: Protein kinase C zeta type (Homo sapiens) (UniProt Q05513); experiment: Inhibition of human PKCZ assessed as residual activity at 1 uM in presence of [33P]ATP by filter binding assay relative to control
[17] = biological target: Misshapen-like kinase 1 (Homo sapiens) (UniProt Q8N4C8); experiment: Inhibition of human MINK1 assessed as residual activity at 1 uM in presence of [33P]ATP by filter binding assay relative to control
[18] = biological target: Death-associated protein kinase 1 (Homo sapiens) (UniProt P53355); experiment: Inhibition of human DAPK1 assessed as residual activity at 1 uM in presence of 33P-ATP by filter-binding assay relative to control
[19] = biological target: Mitogen-activated protein kinase 8 (Homo sapiens) (UniProt P45983); experiment: Inhibition of human JNK1 assessed as residual activity at 1 uM in presence of [33P]ATP by filter binding assay relative to control
[20] = biological target: Serine/threonine-protein kinase 16 (Homo sapiens) (UniProt O75716); experiment: Inhibition of human MPSK1 assessed as residual activity at 1 uM in presence of [33P]ATP by filter binding assay relative to control
[21] = biological target: Ephrin type-B receptor 2 (Homo sapiens) (UniProt P29323); experiment: Inhibition of human EPH-B2 assessed as residual activity at 1 uM in presence of [33P]ATP by filter binding assay relative to control
[22] = biological target: Aurora kinase A (Homo sapiens) (UniProt O14965); experiment: Inhibition of human Aurora A assessed as residual activity at 1 uM in presence of [33P]ATP by filter binding assay relative to control
[23] = biological target: Inhibitor of nuclear factor kappa-B kinase subunit epsilon (Homo sapiens) (UniProt Q14164); experiment: Inhibition of human IKKe assessed as residual activity at 1 uM in presence of 33P-ATP by filter-binding assay relative to control
[24] = biological target: Proto-oncogene tyrosine-protein kinase Src (Homo sapiens) (UniProt P12931); experiment: Inhibition of human Src assessed as residual activity at 1 uM in presence of [33P]ATP by filter binding assay relative to control
[25] = biological target: Protein kinase C alpha type (Homo sapiens) (UniProt P17252); experiment: Inhibition of human PKCa assessed as residual activity at 1 uM in presence of [33P]ATP by filter binding assay relative to control
[26] = biological target: Interleukin-1 receptor-associated kinase 1 (Homo sapiens) (UniProt P51617); experiment: Inhibition of human IRAK1 assessed as residual activity at 1 uM in presence of [33P]ATP by filter binding assay relative to control
[27] = biological target: Mitogen-activated protein kinase kinase kinase 1 (Homo sapiens) (UniProt Q13233); experiment: Inhibition of human MEKK1 assessed as residual activity at 1 uM in presence of [33P]ATP by filter binding assay relative to control
[28] = biological target: Insulin-like growth factor 1 receptor (Homo sapiens) (UniProt P08069); experiment: Inhibition of human IGF-1R assessed as residual activity at 1 uM in presence of [33P]ATP by filter binding assay relative to control
[29] = biological target: MAP/microtubule affinity-regulating kinase 3 (Homo sapiens) (UniProt P27448); experiment: Inhibition of human MARK3 assessed as residual activity at 1 uM in presence of [33P]ATP by filter binding assay relative to control

Chain of Receptor-interacting serine/threonine-protein kinase 2 (Homo sapiens) (O43353 whole entry): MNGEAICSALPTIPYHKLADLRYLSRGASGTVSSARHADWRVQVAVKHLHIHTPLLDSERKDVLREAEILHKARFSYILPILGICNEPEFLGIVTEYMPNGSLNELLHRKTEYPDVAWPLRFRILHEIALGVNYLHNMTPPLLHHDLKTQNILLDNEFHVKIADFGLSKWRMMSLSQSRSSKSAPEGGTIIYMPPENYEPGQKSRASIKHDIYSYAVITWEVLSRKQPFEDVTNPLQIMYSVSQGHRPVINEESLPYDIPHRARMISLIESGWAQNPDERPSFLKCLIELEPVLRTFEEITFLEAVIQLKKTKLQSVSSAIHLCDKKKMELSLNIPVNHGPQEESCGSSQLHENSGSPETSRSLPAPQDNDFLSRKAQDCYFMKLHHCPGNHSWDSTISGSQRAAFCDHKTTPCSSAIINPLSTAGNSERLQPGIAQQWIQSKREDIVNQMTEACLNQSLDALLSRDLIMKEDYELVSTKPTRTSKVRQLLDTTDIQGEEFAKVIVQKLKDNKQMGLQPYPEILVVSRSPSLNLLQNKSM
Chain of Death-associated protein kinase 1 (Homo sapiens) (P53355 whole entry, looked up): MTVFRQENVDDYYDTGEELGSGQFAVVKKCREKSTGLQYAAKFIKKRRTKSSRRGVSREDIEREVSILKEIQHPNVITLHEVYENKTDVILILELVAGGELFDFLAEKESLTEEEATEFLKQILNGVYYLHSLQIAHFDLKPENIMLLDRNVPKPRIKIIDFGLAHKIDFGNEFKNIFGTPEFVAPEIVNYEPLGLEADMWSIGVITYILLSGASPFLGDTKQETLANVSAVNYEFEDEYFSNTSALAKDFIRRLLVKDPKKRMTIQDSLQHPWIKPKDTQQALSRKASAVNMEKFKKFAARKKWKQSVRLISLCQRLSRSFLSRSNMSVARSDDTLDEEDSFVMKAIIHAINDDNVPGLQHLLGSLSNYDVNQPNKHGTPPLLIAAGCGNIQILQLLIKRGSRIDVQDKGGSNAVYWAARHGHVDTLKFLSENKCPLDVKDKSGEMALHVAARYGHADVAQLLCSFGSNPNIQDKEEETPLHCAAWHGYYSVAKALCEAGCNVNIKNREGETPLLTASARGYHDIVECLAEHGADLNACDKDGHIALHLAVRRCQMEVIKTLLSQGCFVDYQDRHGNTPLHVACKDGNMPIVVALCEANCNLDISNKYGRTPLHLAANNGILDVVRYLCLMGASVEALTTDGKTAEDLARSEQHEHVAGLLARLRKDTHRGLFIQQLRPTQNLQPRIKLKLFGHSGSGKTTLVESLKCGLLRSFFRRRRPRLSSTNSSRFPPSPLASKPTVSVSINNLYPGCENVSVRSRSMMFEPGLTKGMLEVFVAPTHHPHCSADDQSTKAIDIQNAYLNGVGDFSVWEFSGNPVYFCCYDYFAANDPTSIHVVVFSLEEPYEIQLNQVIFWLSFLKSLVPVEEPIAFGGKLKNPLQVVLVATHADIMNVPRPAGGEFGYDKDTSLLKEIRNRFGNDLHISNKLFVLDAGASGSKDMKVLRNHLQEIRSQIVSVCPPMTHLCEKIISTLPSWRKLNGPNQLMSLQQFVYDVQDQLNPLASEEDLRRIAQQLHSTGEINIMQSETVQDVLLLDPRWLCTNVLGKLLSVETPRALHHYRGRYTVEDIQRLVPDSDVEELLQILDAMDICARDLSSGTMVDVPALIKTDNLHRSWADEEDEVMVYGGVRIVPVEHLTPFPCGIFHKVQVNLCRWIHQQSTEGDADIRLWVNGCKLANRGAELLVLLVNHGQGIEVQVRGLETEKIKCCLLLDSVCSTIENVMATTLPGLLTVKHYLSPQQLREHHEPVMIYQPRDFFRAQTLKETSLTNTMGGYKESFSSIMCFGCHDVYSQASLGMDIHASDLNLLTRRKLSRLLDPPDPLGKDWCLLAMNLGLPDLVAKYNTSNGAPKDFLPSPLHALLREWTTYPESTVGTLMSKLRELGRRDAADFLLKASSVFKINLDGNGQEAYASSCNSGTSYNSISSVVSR
Chain of Insulin-like growth factor 1 receptor (Homo sapiens) (P08069 31-736 limits assumed): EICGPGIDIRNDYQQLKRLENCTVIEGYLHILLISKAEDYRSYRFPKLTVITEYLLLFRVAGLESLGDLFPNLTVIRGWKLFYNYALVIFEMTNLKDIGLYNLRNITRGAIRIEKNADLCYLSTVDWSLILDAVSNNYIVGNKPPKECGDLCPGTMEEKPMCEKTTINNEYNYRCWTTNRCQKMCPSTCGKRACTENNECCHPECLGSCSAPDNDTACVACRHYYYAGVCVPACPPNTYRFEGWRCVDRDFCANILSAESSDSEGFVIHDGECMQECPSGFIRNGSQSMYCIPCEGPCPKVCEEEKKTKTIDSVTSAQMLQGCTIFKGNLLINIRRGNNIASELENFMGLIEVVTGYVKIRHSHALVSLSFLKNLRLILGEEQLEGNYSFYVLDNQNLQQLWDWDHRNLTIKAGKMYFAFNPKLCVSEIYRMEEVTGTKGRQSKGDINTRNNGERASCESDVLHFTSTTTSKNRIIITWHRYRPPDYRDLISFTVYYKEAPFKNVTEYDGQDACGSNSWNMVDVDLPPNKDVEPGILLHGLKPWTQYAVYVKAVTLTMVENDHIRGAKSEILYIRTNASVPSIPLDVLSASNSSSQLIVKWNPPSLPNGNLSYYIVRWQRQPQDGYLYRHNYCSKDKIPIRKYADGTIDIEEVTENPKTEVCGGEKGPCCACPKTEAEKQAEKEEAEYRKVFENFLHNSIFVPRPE
Chain of Insulin-like growth factor 1 receptor (Homo sapiens) (P08069 741-1367 limits assumed): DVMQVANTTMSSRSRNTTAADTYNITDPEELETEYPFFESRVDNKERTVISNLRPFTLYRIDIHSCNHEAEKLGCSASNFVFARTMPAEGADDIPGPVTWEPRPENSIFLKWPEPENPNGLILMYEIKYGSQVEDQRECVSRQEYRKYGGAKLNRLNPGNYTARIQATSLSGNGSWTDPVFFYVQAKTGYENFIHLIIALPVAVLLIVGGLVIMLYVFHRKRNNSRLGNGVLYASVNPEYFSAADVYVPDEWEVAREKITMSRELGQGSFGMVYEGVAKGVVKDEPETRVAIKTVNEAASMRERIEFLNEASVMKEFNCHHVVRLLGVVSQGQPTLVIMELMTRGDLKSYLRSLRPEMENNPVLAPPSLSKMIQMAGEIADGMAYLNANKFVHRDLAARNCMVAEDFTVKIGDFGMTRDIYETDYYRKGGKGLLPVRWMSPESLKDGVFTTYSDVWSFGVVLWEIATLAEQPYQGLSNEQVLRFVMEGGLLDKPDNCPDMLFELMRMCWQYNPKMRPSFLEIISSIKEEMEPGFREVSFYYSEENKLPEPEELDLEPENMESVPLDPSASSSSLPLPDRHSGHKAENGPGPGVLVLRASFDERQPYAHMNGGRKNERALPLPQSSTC
Chain of Aurora kinase A (Homo sapiens) (O14965 whole entry): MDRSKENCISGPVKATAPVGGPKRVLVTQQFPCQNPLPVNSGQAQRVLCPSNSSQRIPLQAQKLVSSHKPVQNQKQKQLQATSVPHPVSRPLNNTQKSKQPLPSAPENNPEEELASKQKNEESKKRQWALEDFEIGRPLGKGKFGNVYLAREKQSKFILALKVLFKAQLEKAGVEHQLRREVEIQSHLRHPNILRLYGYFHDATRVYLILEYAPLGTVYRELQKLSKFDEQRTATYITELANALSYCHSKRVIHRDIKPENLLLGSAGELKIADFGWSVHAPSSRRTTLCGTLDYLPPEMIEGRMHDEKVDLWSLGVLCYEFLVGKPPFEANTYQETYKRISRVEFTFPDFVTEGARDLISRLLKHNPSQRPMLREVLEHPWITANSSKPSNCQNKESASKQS
Chain of Interleukin-1 receptor-associated kinase 1 (Homo sapiens) (P51617 whole entry, looked up): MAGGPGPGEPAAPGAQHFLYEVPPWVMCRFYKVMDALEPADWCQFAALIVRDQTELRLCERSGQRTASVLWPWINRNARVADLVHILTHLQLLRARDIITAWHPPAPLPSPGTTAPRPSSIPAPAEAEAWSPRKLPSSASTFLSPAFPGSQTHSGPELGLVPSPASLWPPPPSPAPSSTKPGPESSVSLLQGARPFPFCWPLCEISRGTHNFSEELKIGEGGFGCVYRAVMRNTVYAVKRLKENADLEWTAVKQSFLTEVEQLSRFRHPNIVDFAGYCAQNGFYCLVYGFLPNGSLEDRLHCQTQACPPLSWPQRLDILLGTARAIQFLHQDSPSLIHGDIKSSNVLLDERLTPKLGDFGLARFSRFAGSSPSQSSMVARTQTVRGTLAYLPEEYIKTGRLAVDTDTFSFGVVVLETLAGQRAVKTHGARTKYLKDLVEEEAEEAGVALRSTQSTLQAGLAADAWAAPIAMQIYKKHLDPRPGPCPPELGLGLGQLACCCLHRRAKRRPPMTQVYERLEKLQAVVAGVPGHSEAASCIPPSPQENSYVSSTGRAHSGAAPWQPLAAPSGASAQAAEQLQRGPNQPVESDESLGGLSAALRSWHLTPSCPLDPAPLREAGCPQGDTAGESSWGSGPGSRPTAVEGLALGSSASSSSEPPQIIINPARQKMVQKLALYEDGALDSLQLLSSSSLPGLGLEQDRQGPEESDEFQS
Chain of Serine/threonine-protein kinase 16 (Homo sapiens) (O75716 whole entry): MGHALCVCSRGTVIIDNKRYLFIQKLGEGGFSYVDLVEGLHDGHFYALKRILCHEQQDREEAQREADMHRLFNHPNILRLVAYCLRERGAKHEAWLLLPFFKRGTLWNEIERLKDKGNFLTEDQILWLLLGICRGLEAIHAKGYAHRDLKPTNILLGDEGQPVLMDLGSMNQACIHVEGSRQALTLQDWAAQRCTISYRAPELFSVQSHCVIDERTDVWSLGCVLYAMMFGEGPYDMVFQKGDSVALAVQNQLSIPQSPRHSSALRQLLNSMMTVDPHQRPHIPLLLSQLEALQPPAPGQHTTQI
Chain of Serine/threonine-protein kinase Nek6 (Homo sapiens) (Q9HC98 whole entry): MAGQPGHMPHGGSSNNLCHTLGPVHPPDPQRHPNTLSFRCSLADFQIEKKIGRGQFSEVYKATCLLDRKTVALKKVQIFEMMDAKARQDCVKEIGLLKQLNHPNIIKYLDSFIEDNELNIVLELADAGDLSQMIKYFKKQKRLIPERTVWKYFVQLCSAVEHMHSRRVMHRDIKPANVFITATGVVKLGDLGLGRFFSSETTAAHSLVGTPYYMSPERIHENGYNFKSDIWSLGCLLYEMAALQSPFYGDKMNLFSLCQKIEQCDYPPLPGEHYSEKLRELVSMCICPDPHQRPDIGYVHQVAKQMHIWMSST

Activity [1]: 50%
Activity [2]: 94%
Activity [3]: 79%
Activity [4]: 81%
Activity [5]: 102%
Activity [6]: 62%
Activity [7]: 110%
Activity (Homo sapiens): 1%
Activity [8]: 93%
Activity [9]: 4%
Activity [10]: 48%
Activity [11]: 9%
Activity [12]: 84%
Activity [13]: 90%
Activity [14]: 39%
Activity [15]: 75%
Activity [16]: 95%
Activity [17]: 100%
Activity [19]: 91%
Activity [20]: 118%
Activity [21]: 96%
Activity [22]: 97%
Activity [23]: 13%
Activity [24]: 67%
Activity [25]: 93%
Activity [26]: 97%
Activity [27]: 106%
Activity [28]: 79%
Activity [29]: 84%
SMILES: NCCCC[C@H](NC(=O)[C@H](CC(=O)O)NC(=O)[C@H](CC(=O)O)NC(=O)[C@H](CC(=O)O)NC(=O)[C@H](CC(=O)O)NC(=O)[C@H](CC(=O)O)NC(=O)[C@H](CC(=O)O)NC(=O)CCCCCCCCOc1nc2cc(C(=O)O)ccc2c2cnccc12)C(=O)O (X1-DDDDDDK-OH)
Activity [18]: 50%
